Reference: US20150274664A1 (MERCK SHARP & DOHME CORP., priority 2012, published 2015)
pEC50: −log10 of the molar value.

Molecular target: T1, human SNP variant (S309L) of GPR119 (Homo sapiens, UniProt Q8TDV5, S309L)
T1 construct: expressed in transfected cells; host or cells: HEK293 Flp-In (Invitrogen)
T1 sequence (Q8TDV5 1-335 S309L): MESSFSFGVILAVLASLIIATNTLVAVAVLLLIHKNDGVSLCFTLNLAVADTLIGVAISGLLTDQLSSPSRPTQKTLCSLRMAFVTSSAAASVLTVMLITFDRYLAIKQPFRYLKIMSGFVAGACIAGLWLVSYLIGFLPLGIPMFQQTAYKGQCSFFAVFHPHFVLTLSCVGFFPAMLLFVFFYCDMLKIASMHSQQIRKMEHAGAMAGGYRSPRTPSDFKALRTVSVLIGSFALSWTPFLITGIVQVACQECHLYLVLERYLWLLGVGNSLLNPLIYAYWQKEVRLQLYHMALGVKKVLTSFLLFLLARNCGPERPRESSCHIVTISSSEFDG
Assay: GPR119 signaling, cAMP homogenous time resolved fluorescence (HTRF) assay
Type: cell-based
Conditions: HEK293 Flp-In cells stably transfected with human GPR119 (S309L), HTRF kit
Text: Measurement of GPR119 Signaling Using a Cyclic AMP (cAMP) Homogenous Time Resolved Fluorescence (HTRF) Assay
Chinese hamster ovary (CHO) cell lines stably transfected with the permissive guanine nucleotide binding protein alpha 15 (Gals) and murine GPR119 were maintained in DMEM media containing FBS, penicillin-streptomycin, puromycin, and G418 (geneticin). Alternatively, human embryonic kidney (HEK)293 Flp-In cells (Invitrogen, Carlsbad, Calif.) were stably transfected with a human SNP variant (S309L) of GPR119 and maintained in DMEM media containing FBS, penicillin-streptomycin, and hygromycin. Agonist activation of the GPR119 receptor was measured in receptor transfected cells described above, treated with compounds of this invention, using a commercial homogenous time resolved fluorescence (HTRF) kit for measurement of cAMP (CisBio, Bedford, Mass.). The assay was performed in 96-well half-volume plates (murine) or 384-well plates (human) following the manufacturers instructions. Briefly, suspended cells were incubated with a dose titration of test compound at RT for 60 min, lysed, and incubated with HTRF reagents for an additional 60 min. The plate was read using an Envision multilabel reader (Perkin Elmer) adjusted to read time resolved fluorescence and the cAMP concentrations were extrapolated from a cAMP calibration curve. […] The concentration of test compound required to stimulate a half-maximal response (EC50), and efficacy as compared to an internal agonist control, was determined from a sigmoidal 4-parameter curve fit of the resulting plot of normalized activity versus compound concentration.

| SMILES | pEC50 |
| --- | --- |
| CS(=O)(=O)c1ccc(COC[C@H]2C[C@@H]2C2CCN(c3ncc(Cl)cn3)CC2)nc1 [Example 1, 5-chloro-2-(4-((1R,2S)-2-(((5-(methylsulfonyl)pyridin-2-yl)methoxy)methyl)cyclopropyl)piperidin-1-yl)pyrimidine] | 8.42 |
| CS(=O)(=O)c1ccc(COC[C@H]2C[C@@H]2C2CCN(c3ncc(Cl)cn3)CC2)cc1F [Example 5, 5-chloro-2-(4-((1R,2S)-2-(((3-fluoro-4-(methylsulfonyl)benzyl)oxy)methyl)cyclopropyl)piperidin-1-yl)pyrimidine] | 9.00 |
| Cc1cnc(N2CCC([C@H]3C[C@@H]3COCc3ccc(S(C)(=O)=O)cc3)CC2)nc1 [Example 6, 5-methyl-2-(4-((1R,2S)-2-(((4-(methylsulfonyl)benzyl)oxy)methyl)cyclopropyl)piperidin-1-yl)pyrimidine] | 8.15 |
| CCS(=O)(=O)c1ccc(COC[C@H]2C[C@@H]2C2CCN(c3ncc(C)cn3)CC2)cc1 [Example 7, 2-(4-((1R,2S)-2-(((4-(ethylsulfonyl)benzyl)oxy)methyl)cyclopropyl)piperidin-1-yl)-5-methylpyrimidine] | 8.24 |
| CCc1cnc(N2CCC([C@H]3C[C@@H]3COCc3ccc(S(C)(=O)=O)cc3)CC2)nc1 [Example 10, 5-ethyl-2-(4-((1R,2S)-2-(((4-(methylsulfonyl)benzyl)oxy)methyl)cyclopropyl)piperidin-1-yl)pyrimidine] | 8.72 |
| CC1(OC(=O)N2CCC([C@H]3C[C@@H]3COCc3ccc(S(C)(=O)=O)c(F)c3)CC2)CC1 [Example 17, 1-methylcyclopropyl 4-((1R,2S)-2-(((3-fluoro-4-(methylsulfonyl)benzyl)oxy)methyl)cyclopropyl)piperidine-1-carboxylate] | 8.34 |
| CC(C)c1noc(N2CCC([C@H]3C[C@@H]3COCc3ccc(S(C)(=O)=O)cc3)CC2)n1 [Example 21, 3-isopropyl-5-(4-((1R,2S)-2-((4-(methylsulfonyl)benzyloxy)methyl)cyclopropyl)piperidin-1-yl)-1,2,4-oxadiazole] | 8.42 |
| CC(C)c1noc(N2CCC([C@H]3C[C@@H]3COCc3ccc(S(C)(=O)=O)c(F)c3)CC2)n1 [Example 22, 5-(4-((1R,2S)-2-(((3-fluoro-4-(methylsulfonyl)benzyl)oxy)methyl)cyclopropyl)piperidin-1-yl)-3-isopropyl-1,2,4-oxadiazole] | 8.49 |
| Cc1nnc(-c2ccc(OCC[C@@H]3C[C@H]3C3CCN(c4ncc(Cl)cn4)CC3)cc2F)o1 [Example 64, 2-(4-(2-((1S,2S)-2-(1-(5-chloropyrimidin-2-yl)piperidin-4-yl)cyclopropyl)ethoxy)-2-fluorophenyl)-5-methyl-1,3,4-oxadiazole] | 8.08 |
| CS(=O)(=O)c1ccc(OCC[C@@H]2C[C@H]2C2CCN(c3nc(C4CC4)no3)CC2)nc1 [Example 112, 3-cyclopropyl-5-(4-((1S,2S)-2-(2-((5-(methylsulfonyl)pyridin-2-yl)oxy)ethyl)cyclopropyl)piperidin-1-yl)-1,2,4-oxadiazole] | 8.21 |
| CCCc1noc(N2CCC([C@@H]3C[C@H]3CCOc3ccc(S(C)(=O)=O)cn3)CC2)n1 [Example 113, 5-(4-((1S,2S)-2-(2-((5-(methylsulfonyl)pyridin-2-yl)oxy)ethyl)cyclopropyl)piperidin-1-yl)-3-propyl-1,2,4-oxadiazole] | 8.10 |
| CS(=O)(=O)c1ccc(OCC[C@@H]2C[C@H]2C2CCN(c3nc(C4CCC4)no3)CC2)nc1 [Example 114, 3-cyclobutyl-5-(4-((1S,2S)-2-(2-((5-(methylsulfonyl)pyridin-2-yl)oxy)ethyl)cyclopropyl)piperidin-1-yl)-1,2,4-oxadiazole] | 8.32 |
| COCc1cnc(N2CCC([C@H]3C[C@@H]3CCNc3ncc(-n4cnnn4)cn3)CC2)nc1 [Example 124, N-(2-((1R,2S)-2-(1-(5-(methoxymethyl)pyrimidin-2-yl)piperidin-4-yl)cyclopropyl)ethyl)-5-(1H-tetrazol-1-yl)pyrimidin-2-amine] | 8.28 |
| CS(=O)(=O)c1ccc(NCC[C@H]2C[C@@H]2C2CCN(c3ncc(Cl)cn3)CC2)cc1 [Example 128, N-(2-((1R,2S)-2-(1-(5-chloropyrimidin-2-yl)piperidin-4-yl)cyclopropyl)ethyl)-4-(methylsulfonyl)aniline] | 8.17 |

Continued by rising pEC50, values first:

| pEC50 | SMILES |
| --- | --- |
| 8.04 | CC(C)OC(=O)N1CCC([C@H]2C[C@@H]2COCc2ccc(S(C)(=O)=O)cc2)CC1 [Example 19, isopropyl 4-((1R,2S)-2-(((4-(methylsulfonyl)benzyl)oxy)methyl)cyclopropyl)piperidine-1-carboxylate] |
| 8.19 | CC1(OC(=O)N2CCC([C@H]3C[C@@H]3COCc3ccc(S(C)(=O)=O)cc3)CC2)CC1 [Example 18, 1-methylcyclopropyl 4-((1R,2S)-2-(((4-(methylsulfonyl)benzyl)oxy)methyl)cyclopropyl)piperidine-1-carboxylate] |
| 8.24 | CC(C)OC(=O)N1CCC([C@H]2C[C@@H]2COCc2ccc(S(C)(=O)=O)c(F)c2)CC1 [Example 20, isopropyl 4-((1R,2S)-2-(((3-fluoro-4-(methylsulfonyl)benzyl)oxy)methyl)cyclopropyl)piperidine-1-carboxylate] |
| 8.24 | CS(=O)(=O)c1ccc(COC[C@H]2C[C@@H]2C2CCN(C(=O)OC3CC3)CC2)cc1 [Example 16, cyclopropyl 4-((1R,2S)-2-(((4-(methylsulfonyl)benzyl)oxy)methyl)cyclopropyl)piperidine-1-carboxylate] |
| 8.52 | CS(=O)(=O)c1ccc(OCC[C@@]2(C#N)C[C@@H]2C2CCN(c3ncc(Cl)cn3)CC2)cc1 [Example 127, (1S,2R)-2-(1-(5-chloropyrimidin-2-yl)piperidin-4-yl)-1-(2-(4-(methylsulfonyl)phenoxy)ethyl)cyclopropanecarbonitrile] |
| 8.62 | CS(=O)(=O)c1ccc(COC[C@H]2C[C@@H]2C2CCN(C(=O)OC3CC3)CC2)cc1F [Example 15, cyclopropyl 4-((1R,2S)-2-(((3-fluoro-4-(methylsulfonyl)benzyl)oxy)methyl)cyclopropyl)piperidine-1-carboxylate] |
| 8.92 | CS(=O)(=O)c1ccc(COC[C@H]2C[C@@H]2C2CCN(c3ncc(Cl)cn3)CC2)cc1 [Example 2, 5-chloro-2-(4-((1R,2S)-2-(((4-(methylsulfonyl)benzyl)oxy)methyl)cyclopropyl)piperidin-1-yl)pyrimidine] |
| 9.14 | CCS(=O)(=O)c1ccc(COC[C@H]2C[C@@H]2C2CCN(c3ncc(Cl)cn3)CC2)cc1 [Example 3, 5-chloro-2-(4-((1R,2S)-2-(((4-(ethylsulfonyl)benzyl)oxy)methyl)cyclopropyl)piperidin-1-yl)pyrimidine] |
